From ChEMBL document CHEMBL6134907, “Synthesis of 5,9- and 5,8-Diaminoalkoxy Substituted Benzophenanthridinone Analogues as Tyrosyl-DNA Phosphodiesterase 1 Inhibitors and Their Radiosensitizing Activity” (J Med Chem, 2025)
pIC50: −log10 of the molar value. The source made the active and inactive calls. The calls are words filed in the database; no cut-off is given here.

Tests used:
[1] = biological target: Tyrosyl-DNA phosphodiesterase 1 (Homo sapiens, UniProt Q9NUW8); experiment: Inhibition of recombinant TDP1 (unknown origin) assessed as substrate cleavage using 5'-Cy5-GATCTAAAAGACTT-pY-3' DNA substrate measured after 15 mins by gel-based assay
Tyrosyl-DNA phosphodiesterase 1, sequence (Q9NUW8 whole entry): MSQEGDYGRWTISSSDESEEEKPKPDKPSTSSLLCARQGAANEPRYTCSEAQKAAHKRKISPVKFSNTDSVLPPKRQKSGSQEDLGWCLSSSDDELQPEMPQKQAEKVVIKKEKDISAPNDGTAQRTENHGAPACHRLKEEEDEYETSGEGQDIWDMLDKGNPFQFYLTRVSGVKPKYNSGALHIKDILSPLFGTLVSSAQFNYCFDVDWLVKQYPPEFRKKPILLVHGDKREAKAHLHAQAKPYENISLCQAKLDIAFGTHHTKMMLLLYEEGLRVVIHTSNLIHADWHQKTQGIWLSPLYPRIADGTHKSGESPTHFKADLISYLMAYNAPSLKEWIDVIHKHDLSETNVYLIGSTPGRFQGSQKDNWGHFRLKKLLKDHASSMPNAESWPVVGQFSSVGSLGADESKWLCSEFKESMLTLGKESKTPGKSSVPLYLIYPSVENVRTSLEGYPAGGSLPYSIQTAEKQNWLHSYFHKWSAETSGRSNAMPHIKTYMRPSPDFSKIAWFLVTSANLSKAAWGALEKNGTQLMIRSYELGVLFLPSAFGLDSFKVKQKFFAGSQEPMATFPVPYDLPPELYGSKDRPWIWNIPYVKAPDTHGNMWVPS

[2] = system: Tyrosyl-DNA phosphodiesterase 1/Deoxyribonucleic acid; experiment: Stabilization of TDP1/DNA complex in human HCT-116 cells at 100 uM by Cellular Thermal Shift Assay (CETSA); assay type: cell-based
HCT-116 [3] = experiment: In vivo radiosensitizing activity in human HCT-116 cells xenografted in BALB/c mouse assessed as sensitization of 1 GY ionizing radiation induced reduction in tumor weight at 10 mg/kg, ip every day for 14 days radiated for every 2 days once (reference value: 35%); assay type: functional; set-up: scale not given: the % may be the effect or the level left; details: time 14 day
HCT-116 [4] = experiment: Reduction in recruitment of XRCC4 at damage site of human HCT-116 cells at 5 uM radiated with 4 GY ionizing radiation (IR) measured after 3 hrs by fluorescence colocalization assay; assay type: functional, cell-based
HCT-116 [5] = experiment: Induction of apoptosis in human HCT-116 cells assessed as viable cells at 5 uM measured after 24 hrs by FITC Annexin V/PI apoptosis detection assay (reference value: 99.71%); assay type: functional; details: read-out: Activity
[6] = Tmax in male Sprague-Dawley rat at 5 mg/kg, IG measured up to 24 hrs by LCMS-MS analysis; assay type: ADME, organism-based; details: in vivo, po
[7] = Toxicity in BALB/c mouse xenografted with human HCT-116 cells assessed as change in body weight at 10 mg/kg, ip every day for 14 days; assay type: organism-based; details: in vivo, 336 h, time 14 day
[8] = Toxicity in BALB/c mouse xenografted with human HCT-116 cells assessed as change in spleen weight at 1 to 10 mg/kg, ip every day for 14 days; assay type: organism-based; details: in vivo, 336 h, dose 1-10 mg/kg, time 14 day
HCT-116 [9] = experiment: Induction of ionizing radiation (IR) induced gamma-H2AX level in human HCT-116 cells at 5 uM measured after 3 hrs by Western blot analysis; assay type: functional, cell-based
HCT-116 [10] = experiment: Effect on Ku70/80 expression in wild type human HCT-116 cells assessed as change in mRNA level at 5 to 10 uM measured after 24 hrs by qRT-PCR analysis; assay type: functional, cell-based; details: dose 5-10 µM
HCT-116 [11] = experiment: Induction of 4GY ionizing radiation (IR) induced apoptosis in human HCT-116 cells assessed as viable cells at 5 uM measured after 24 hrs by FITC Annexin V/PI apoptosis detection assay (reference value: 66.88%); assay type: functional; details: read-out: Activity
HCT-116 [12] = experiment: Induction of cell cycle arrest in human HCT-116 cells assessed as accumulation of cells at S phase at 10 uM measured after 24 hrs by Propidium iodide (PI) staining based assay (reference value: 13.96%); assay type: functional
[13] = AUC infinity in male Sprague-Dawley rat at 5 mg/kg, IG measured up to 24 hrs by LCMS-MS analysis; assay type: ADME, organism-based; details: in vivo, po
A549 = experiment: Radiosensitizing activity in human A549 cells assessed as sensitization of 2 GY ionizing radiation induced decrease in cell survival by colony formation assay; assay type: functional, cell-based
[14] = Induction of 4GY ionizing radiation (IR) induced cell cycle arrest in human HCT-116 cells assessed as accumulation of cells at S phase at 5 uM measured after 24 hrs by Propidium iodide (PI) staining based assay (reference value: 11.48%); assay type: functional
HCT-116 [15] = experiment: Effect on Lig4 expression in wild type human HCT-116 cells assessed as change in mRNA level at 5 to 10 uM radiated with 4 GY ionizing radiation (IR) measured after 24 hrs by qRT-PCR analysis; assay type: functional, cell-based; details: dose 5-10 µM
HCT-116 [16] = experiment: Effect on Ku70/80 expression in wild type human HCT-116 cells assessed as change in protein level at 5 to 10 uM measured after 24 hrs by Western blot analysis; assay type: functional, cell-based; details: dose 5-10 µM
HCT-116 [17] = experiment: In vivo radiosensitizing activity in human HCT-116 cells xenografted in BALB/c mouse assessed as sensitization of 1 GY ionizing radiation induced reduction in tumor weight at 1 mg/kg, ip every day for 14 days radiated for every 2 days once (reference value: 35%); assay type: functional; set-up: scale not given: the % may be the effect or the level left; details: time 14 day
HCT-116 [18] = experiment: Reduction of XRCC4 expression in wild type human HCT-116 cells assessed as reduction in mRNA level at 5 to 10 uM measured after 24 hrs by qRT-PCR analysis; assay type: functional, cell-based; details: dose 5-10 µM
HGC-27 = experiment: Radiosensitizing activity in human HGC-27 cells assessed as sensitization of 2 GY ionizing radiation induced decrease in cell survival by colony formation assay; assay type: functional, cell-based
HCT-116 [19] = experiment: Effect on Ku70/80 expression in wild type human HCT-116 cells assessed as change in mRNA level at 5 to 10 uM radiated with 4 GY ionizing radiation (IR) measured after 24 hrs by qRT-PCR analysis; assay type: functional, cell-based; details: dose 5-10 µM
[20] = MRT infinity in male Sprague-Dawley rat at 1 mg/kg, iv measured up to 24 hrs by LCMS-MS analysis; assay type: ADME, organism-based; details: in vivo
HCT-116 [21] = experiment: Reduction of XRCC4 expression in wild type human HCT-116 cells assessed as reduction in protein level at 5 to 10 uM radiated with 4 GY ionizing radiation (IR) measured after 24 hrs by Western blot analysis; assay type: functional, cell-based; details: dose 5-10 µM
HCT-116 [22] = experiment: Induction of PIG3 transcription level in human HCT-116 cells measured after 24 hrs; assay type: functional, cell-based
HCT-116 [23] = experiment: Induction of PIG3 transcription level in human HCT-116 cells measured after 24 hrs treated with 4 GY ionizing radiation (IR); assay type: functional, cell-based; details: dose 5-10 µM
HCT-116 [24] = experiment: Radiosensitizing activity in human HCT-116 cells assessed as induction of 2 GY ionizing radiation (IR) induced cell killing effect; assay type: functional, cell-based
[25] = Tmax in male Sprague-Dawley rat at 1 mg/kg, iv measured up to 24 hrs by LCMS-MS analysis; assay type: ADME, organism-based; details: in vivo
[26] = AUClast in male Sprague-Dawley rat at 5 mg/kg, IG measured up to 24 hrs by LCMS-MS analysis; assay type: ADME, organism-based; details: in vivo, po
[27] = Toxicity in BALB/c mouse xenografted with human HCT-116 cells assessed as change in heart weight at 1 to 10 mg/kg, ip every day for 14 days radiated for every 2 days once; assay type: organism-based; details: in vivo, 336 h, dose 1-10 mg/kg, time 14 day
HCT-116 [28] = experiment: Induction of cell cycle arrest in human HCT-116 cells assessed as accumulation of cells at G2/M phase at 5 uM measured after 24 hrs by Propidium iodide (PI) staining based assay (reference value: 15.77%); assay type: functional
HCT-116 [29] = experiment: Induction of apoptosis in human HCT-116 cells assessed as induction of 4GY ionizing radiation (IR) induced cleaved Caspase-7 at 5 uM measured after 24 hrs by Western blot analysis; assay type: functional, cell-based
HCT-116 [30] = experiment: Induction of cell cycle arrest in human HCT-116 cells assessed as accumulation of cells at G2/M phase at 10 uM measured after 24 hrs by Propidium iodide (PI) staining based assay (reference value: 15.77%); assay type: functional
[31] = Toxicity in BALB/c mouse xenografted with human HCT-116 cells assessed as change in lung weight at 1 to 10 mg/kg, ip every day for 14 days radiated for every 2 days once; assay type: organism-based; details: in vivo, 336 h, dose 1-10 mg/kg, time 14 day
HCT-116 [32] = experiment: Reduction of XRCC4 expression in wild type human HCT-116 cells assessed as reduction in protein level at 5 to 10 uM measured after 24 hrs by Western blot analysis; assay type: functional, cell-based; details: dose 5-10 µM

With `COc1cc2c(=O)n(CCN(C)C)c3c4cc5c(cc4ccc3c2cc1OCCN1CCOCC1)OCO5` the pIC50 [1] was 5.11, the Activity [2] was “Active; Coincubation With Ionizing Radiation Showed Greater Complex Formation” and the Activity (HCT-116 [3]) was 77%. For the same molecule, the Activity (HCT-116 [4]) was “Active”, the viability at 5 µM (HCT-116 [5]) was 78.2% and the Tmax [6] was 4 h. The Activity [7] was “Non-toxic”, the Activity [8] was “Non-toxic” and the Activity (HCT-116 [9]) was “Active”. The Activity (HCT-116 [10]) was “inactive”, the viability at 5 µM (HCT-116 [11]) was 61.3% and the Activity (HCT-116 [12]) was 10.2%. The AUC(0-inf) [13] was 735 ng·h/mL, the Activity (A549) was “inactive” and the Activity [14] was 11.88%. The Activity (HCT-116 [15]) was “inactive”, the Activity (HCT-116 [16]) was “inactive” and the Activity (HCT-116 [17]) was 60%. For the same molecule, the Activity (HCT-116 [18]) was “Active”, the Activity (HGC-27) was “inactive” and the Activity (HCT-116 [19]) was “inactive”. For the same molecule, the MRT inf [20] was 3.33 h, the Activity (HCT-116 [21]) was “Active” and the Activity (HCT-116 [22]) was “Dose-dependent-effect”. The Activity (HCT-116 [23]) was “Dose-dependent-effect”, the Activity (HCT-116 [24]) was “Active” and the Tmax [25] was 4.98 min. For the same molecule, the AUC(0-t) at 24 h [26] was 779 ng·h/mL, the Activity [27] was “Non-toxic” and the Activity (HCT-116 [28]) was 18.4%. The Activity (HCT-116 [29]) was “Active”, the Activity (HCT-116 [30]) was 25.64% and the Activity [31] was “Non-toxic”. The Activity (HCT-116 [32]) was “Active”.
